Results from patent US20060280820A1, “Use of an extract of Aloysia/Verbena/Lippia triphylla/citriodora for the treatment of chronic and/or inflammatory diseases” (priority 2003, published 2006).

Test: Degradation of glycosaminoglycanes by reactive oxygen species (FIG. 2)
Type: biochemical
Settings: free ferrous ions and hydrogen peroxide; pH value 7.2, 37 degrees Celsius

O=C1O[C@H]([C@@H](O)CO)C(O)=C1O [vitamin C]
degradation of glycosaminoglycanes by reactive oxygen species: enhances the degradation of glycosaminoglycanes
